Reference: patent US9434994B2, “Methods for prediction of clinical outcome to epidermal growth factor receptor inhibitors by non-small cell lung cancer patients” (The Regents of the University of Colorado, a body corporate, priority 2004, dated 2016)
Where “and” joins values, the source holds several entries; their conditions need not be identical. Equal entries are not always repeated. Where two headings read alike, the source gives them in different places.

Test system: advanced non-small-cell lung cancer patients
[1] = HER2 FISH- and/or EGFR mutation-
[2] = all 85 patients with EGFR mutation and P-Akt
[3] = all 89 patients with EGFR mutation analysis
[4] = all 98 patients with EGFR FISH and P-Akt
[5] = all 98 patients with EGFR IHC and P-Akt
[6] = all 102 patients, Example 1 analysis

Description: Eligibility included histologically confirmed NSCLC patients with measurable, locally advanced or metastatic disease, who had progressed or relapsed after chemotherapy, and patients ineligible for chemotherapy because they were elderly, had poor performance status, or comorbid medical condition. Before trial inclusion, smoking status was assessed and patients were classified as never, former (smoking cessation >6 months prior to trial inclusion), or current smokers (cessation <6 months before trial inclusion or active smoker).
Patients were evaluated for response according to the RECIST criteria (30). Tumor response was assessed by computer tomography scan every two months, with a confirmatory evaluation to be repeated in responding patients at least 4 weeks after the initial determination of response. […] Survival (OS) was calculated from the date of therapy initiation to the date of death or last contact.
Differences between the FISH groups were compared by Fisher's exact test or χ^2 test for qualitative variables and by t-student test or ANOVA for continuous variables. Normality of the distribution was assessed by Kolmogorov-Smirnov test. […] Risk factors associated with survival were evaluated using Cox's proportional-hazards regression model with a step-down procedure (33). Only those variables with significant results in univariate analysis were included in the multivariate analysis. The criteria for variable removal was the likelihood ratio statistic based on the maximum partial likelihood estimated (default p-value=0.10 for removal from the model).
Complete clinical information and tissue blocks were available from 80 out of 106 patients enrolled in the Akt clinical trial (Cappuzzo et al., ibid.), and from an additional 22 patients in the Expanded Access Study who were treated consecutively at the end of the Akt study and followed in the same way as patients in the Akt trial.
Eligibility for both studies included histologically confirmed NSCLC with measurable, locally advanced or metastatic disease, progressing or relapsing after chemotherapy or with medical contraindications for chemotherapy. Patients had performance status ranging from grade 0 to 2. Performance status was defined according to Eastern Cooperative Oncology Group (Oken et al., 1982) and considered grade 0 when the patient was fully active and able to perform all pre-disease activities without restriction, grade 1 when the patient was restricted in physically strenuous activity but ambulatory and able to perform work of a light or sedentary nature, and grade 2 when the patient was ambulatory and capable of all self-care but unable to perform any work activities.
Tumor response was assessed by computer tomography scan after 2 months, with a confirmatory evaluation to be repeated in responders and in patients with stable disease at least 4 weeks after the initial determination of response. […] Survival was calculated from the date of therapy initiation to the date of death or to the date of last contact.
Differences between and among groups were compared using Fisher's exact test or Pearson's chi square test for qualitative variables and using student's t test or analysis of variance for continuous variables. Normality of the distribution was assessed using the Kolmogorov-Smirnov test (Curiel et al., 1990).

## COc1cc2ncnc(Nc3ccc(F)c(Cl)c3)c2cc1OCCCN1CCOCC1 [gefitinib]
HER2 FISH+/EGFR IHC+
  TTP: 12.3 months
HER2 FISH+/EGFR IHC-
  OS: 3.3 months
  TTP: 2.3 months
HER2 FISH+/EGFR mutation+
  DCR: 87.5%
  OR: 87.5%
  OS: not reached
  TTP: 15.5 months
HER2 FISH+/EGFR mutation-
  OR: no patient responded
  TTP: 2.3 months
HER2 FISH-
  DCR: 33.3%
  OR: 6.4%
  OS: 8.4 months
  TTP: 2.7 months
HER2 FISH- and/or EGFR FISH-
  DCR: 33.0%
  OR: 6.8%
  median OS: 8.3 months
  median TTP: 2.6 months
HER2 FISH- and/or EGFR IHC-
  DCR: 34.5%
  OR: 7.1%
  OS: 8.4 months
  TTP: 2.6 months
[1]
  DCR: 31.3%
  OR: 5.0%
  OS: 8.3
  TTP: 2.6 months
HER2 FISH-/EGFR FISH+
  DCR: 30.0%
  OR: 10.0%
  median OS: 9.3 months
  median TTP: 5.3 months
HER2 FISH-/EGFR FISH-
  OR: 1.6%
  median OS: 7.3 months
  median TTP: 2.6 months
HER2 FISH-/EGFR IHC+
  OR: 11.1%
  OS: 11.3 months
  TTP: 4.2 months
HER2 FISH-/EGFR IHC-
  DCR: 13.7%
  OR: 0%
  OS: 5.0 months
  TTP: 2.1 months
HER2 FISH-/EGFR mutation+
  DCR: 28.5%
  OR: 14.2%
  OS: 5.7
  TTP: 2.8 months
HER2 FISH-/EGFR mutation-
  DCR: 32.2%
  OR: 4.8%
Italian Cohort, Table 12
  Disease Control Rate: 39%
  Median Survival: 9 (6-11)
  Median Time to Progression: 3 (2-4)
  One-YR Survival: 41% (31-51)
  Overall Response: 13%
P-Akt negative
  Disease Control Rate: 22%
  response rate: 0%
  time to progression: 2.1 months
P-Akt positive
  Survival: 11.4 months
  response rate: 21%
  time to progression: 4.2 months
adenocarcinoma
  1-year Cumulative Survival ± SD: 45 ± 7%
  Median Survival: 11.3 months
  Median Time to Progression: 3.2 months
  Objective Response: 8/15%
[2]
  Median Time to Progression: 2.9 months
  Objective Response: 12/14%
[3]
  1-year survival: 41 ± 5
  MS: 9.4 mo
  OR: 12 (13%)
  TTP: 2.9 mo
[4]
  1-year Cumulative Survival ± SD: 47 ± 6%
  Disease Control Rate: 40/40%
  Median Survival: 11.5 months
  Median Time to Progression: 4.5 months
  Objective Response: 14/14%
All 98 patients with EGFR IHC
  MS (median overall survival): 9.5 mo
  OR (objective response): 14 (14%)
  PD (progressive disease): 58 (59%)
  TTP: 2.9 mo
[5]
  1-year Cumulative Survival ± SD: 45 ± 6%
  Disease Control Rate: 40/40%
  Median Survival: 11.3 months
  Median Time to Progression: 3.2 months
  Objective Response: 14/14%
All 102 patients
  Complete response (CR): 1%
  Partial responses (PR): 12.7%
[6]
  % Patients without disease progression at 12 months: 18.6%
  Complete and Partial Response: 13.7% and 14%
  Disease Control Rate: 39.2% and 39%
  Median Time to Progression: 2.9 months
  One-year Survival Rate: 45.1%
  Progressive Disease: 60.8%
  Stable Disease: 25.5%
All 102 patients, Table 1
  Median Time to Progression: 2.9 months
  Objective Response: 14% and 14/14%
  Progressive Disease: 60% and 62/60%
bronchioloalveolar
  1-year Cumulative Survival ± SD: 67 ± 16%
  Median Survival: 16.5 months
  Median Time to Progression: 3.0 months
  Objective Response: 3/33%
  Progressive Disease: 5/56%
Current smoker
  1-year Cumulative Survival ± SD: 30 ± 6%
  Median Survival: 4.5 months
  Median Time to Progression: 2.3 months
  Objective Response: 3/6%
  Progressive Disease: 39/72%
female
  1-year Cumulative Survival ± SD: 48 ± 9%
  Median Survival: 11.3 months
  Median Time to Progression: 5.2 months
  Progressive Disease: 16/46%
females, Example 1 analysis
  median TTP: 4.5 months
Former and current smokers
  response rate: 20.8%
Former smoker
  1-year Cumulative Survival ± SD: 55 ± 9%
  Median Time to Progression: 3.6 months
  Objective Response: 5/15%
  Progressive Disease: 17/51%
Large cell
  1-year Cumulative Survival ± SD: 0 ± 0%
  Median Survival: 0.8 months
  Median Time to Progression: 0.8 months
  Objective Response: 0%
  Progressive Disease: 2/100%
male
  Median Time to Progression: 2.7 months
  Objective Response: 6.0% and 4/6%
males, Example 1 analysis
  median TTP: 2.7 months
Never smoker
  1-year Cumulative Survival ± SD: 47 ± 14%
  Median Survival: 10.9 months
  Median Time to Progression: 5.3 months
  Progressive Disease: 6/40%
Performance status 0
  Median Time to Progression: 2.6 months
  Objective Response: 5/10%
  Progressive Disease: 32/65%
Performance status 1
  1-year Cumulative Survival ± SD: 47 ± 8%
  Median Survival: 10.9 months
  Median Time to Progression: 4.2 months
  Progressive Disease: 22/54%
Performance status 2
  1-year Cumulative Survival ± SD: 22 ± 13%
  Median Survival: 2.7 months
  Median Time to Progression: 2.1 months
  Objective Response: 2/17%
Squamous cell
  1-year Cumulative Survival ± SD: 22 ± 9%
  Median Time to Progression: 2.2 months
  Objective Response: 2/8%
Stage III
  1-year Cumulative Survival ± SD: 36 ± 13%
  Median Time to Progression: 6.0 months
  Objective Response: 1/7%
Stage IV
  Median Time to Progression: 2.7 months
  Objective Response: 13/15%
undifferentiated
  1-year Cumulative Survival ± SD: 45 ± 15%
  Median Time to Progression: 2.1 months
  Objective Response: 1/9%
